Experimental findings from patent publication US20030236306A1, “Stabilized formulations of alpha adrenergic receptor antagonists and the uses thereof” (priority 2002, published 2003) are described below.

This data set in a line: Wide-range pH-stability profiling at 40° C. It is filed as physicochemical. As to conditions: 0.1 mg/ml, pH 2-8, 50 mM phosphate or acetate, FIG. 1. How it is done:
The drug is monitored at a detection wavelength of 232 nm.
All samples were stored in the dark.
The phosphate buffers were prepared by adding phosphoric acid (3.40 ml) to de-ionized (DI) water, adjusting the pH with 2 N NaOH, and bringing the volume to 1 L in a volumetric flask. The acetate buffers were prepared by adding acetic acid (2.95 ml) to water, adjusting the pH value with 2 N NaOH, and bringing the volume to 1 L in a volumetric flask.
Measurements were performed for pH after samples had been analyzed by HPLC.
In all stability studies, glass serum vials with rubber closures and flip-top seals were used for storage of the samples to minimize fluid loss. The weights of samples were measured at the beginning of the experiment, prior to sampling for analysis, and after resealing the vials to monitor for any weight loss due to heating. No significant weight loss was observed.
At each pH, the concentration was divided by the corresponding initial concentration (day 0) to obtain the percent recovery. The percent recovery was plotted against time for calculation of first-order rate kinetics. The slope of each pH line was calculated as the rate constant and plotted against pH to obtain a wide-range pH-stability profile.

“Also recorded” adds a separate entry of the source. Structures can show the parent of a compound that is named as a salt.

Turning to `Cc1ccc(N(CC2=NCCN2)c2cccc(O)c2)cc1` [Phentolamine Mesylate, phentolamine mesylate], the “wide-range pH-stability profile (rate of degradation)” value is reported as “significant increase in rate of degradation was observed at pH above 7; also recorded: samples prepared in acetate buffers appeared to be more stable than their counterparts in the phosphate buffers”.
